Experimental data published in patent EP4417602A1, “SUBSTITUTED PYRAZOLE CARBOXAMIDES, SALTS THEREOF AND THEIR USE AS HERBICIDALLY ACTIVE SUBSTANCES” (Bayer AG, priority 2023, dated 2024).

Columns and labels:
[1] = tested on: ECHCG; assay: A. Herbicidal pre-emergence action on harmful plants (Tables A); assay type: in vivo, Echinochloa crus-galli; conditions: visual grading after ca. 3 weeks vs untreated controls, 100% = plants have died off, 0% = as control plants
In short: (§1)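 Greenhouse pre-emergence test: compound applied to the soil surface at 1280 g/ha or below, and herbicidal effect rated visually at ca. 3 weeks on a 0–100% scale against untreated plants.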

[2] = tested on: LOLRI; assay: as above; assay type: in vivo, Lolium rigidum; conditions: visual grading after ca. 3 weeks vs untreated controls, 100% = plants have died off, 0% = as control plants
In short: as §1

[3] = tested on: MATIN; assay: as above; assay type: in vivo, Matricaria inodora; conditions: visual grading after ca. 3 weeks vs untreated controls, 100% = plants have died off, 0% = as control plants
In short: as §1

[4] = tested on: SETVI; assay: as above; assay type: in vivo, Setaria viridis; conditions: visual grading after ca. 3 weeks vs untreated controls, 100% = plants have died off, 0% = as control plants
In short: as §1

[5] = tested on: STEME; assay: as above; assay type: in vivo, Stellaria media; conditions: visual grading after ca. 3 weeks vs untreated controls, 100% = plants have died off, 0% = as control plants
In short: as §1

[6] = tested on: POAAN; assay: as above; assay type: in vivo, Poa annua
In short: as §1

[7] = tested on: DIGSA; assay: C. Herbicidal pre-emergence action, weed and crop plants (Tables C); assay type: in vivo, Digitaria sanguinalis
Description: (§2) Seeds of mono- and dicotyledonous weed plants and crop plants were sown, in plastic or organic planting pots, in sandy loam and covered with soil. The compounds according to the invention, formulated in the form of wettable powders (WP) or as emulsifiable concentrates (EC), were applied to the surface of the covering soil as aqueous suspension or emulsion, with the addition of 0.5% of an additive, at an application rate of 6001 of water/ha (converted). Following treatment, the pots were placed in a greenhouse and kept under optimum growth conditions for the test plants. The visual grading of the damage to the test plants was carried out after ca. 3 weeks in comparison to untreated controls (herbicidal effect in percent (%): 100% effect = plants have died off, 0% effect = as control plants). Tables C1 to C12 below show the effects of selected compounds of the general formula (I) according to table 1 on various harmful plants and an application rate corresponding to 320 g/ha or below obtained by the experimental procedure mentioned above. Table C1: pre-emergence activity at 320g/ha against KCHSC in %

[8] = tested on: ECHCG; assay: as above; assay type: in vivo, Echinochloa crus-galli; conditions: application rate 320 g/ha; Table C6a
Description: as §2

[9] = tested on: LOLRI; assay: as above; assay type: in vivo, Lolium rigidum; conditions: application rate 320 g/ha; Table C7a
Description: as §2

[10] = tested on: VIOTR; assay: as above; assay type: in vivo, Viola tricolor; conditions: application rate 320 g/ha; Table C12a
Description: as §2

[11] = tested on: ORYZA; assay: D. Pre-emergence effects on crop plants (Tables D); assay type: in vivo, Oryza sativa; conditions: crop plant; application rate 80 g/ha; Table D3b
Description: (§3) Seeds of mono- and dicotyledonous weed plants and crop plants were sown, in plastic or organic planting pots, in sandy loam and covered with soil. The compounds according to the invention, formulated in the form of wettable powders (WP) or as emulsifiable concentrates (EC), were applied to the surface of the covering soil as aqueous suspension or emulsion, with the addition of 0.5% of an additive, at an application rate of 6001 of water/ha (converted).
(§4) Following treatment, the pots were placed in a greenhouse and kept under optimum growth conditions for the test plants. The visual grading of the damage to the test plants was carried out after ca. 3 weeks in comparison to untreated controls (herbicidal effect in percent (%): 100% effect = plants have died off, 0% effect = as control plants).
(§5) Tables D1 to D5 below show the effects of various compounds of the general formula (I) according to Table 1 on various crop plants and an application rate corresponding to 320 g/ha or below obtained by the experimental procedure mentioned above in Biological Examples, Section C. Table D1a: pre-emergence activity at 320g/ha against ZEAMX in %

[12] = tested on: GLXMA; assay: D. Pre-emergence effects on crop plants (Tables D); assay type: in vivo, Glycine max; conditions: crop plant
Description: as §3, §4, §5

[13] = tested on: BRSNW; assay: D. Pre-emergence effects on crop plants (Tables D); assay type: in vivo, Brassica napus; conditions: application rate 80 g/ha, crop plant
Description: as §3, §4, §5

[14] = tested on: ZEAMX; assay: F. Post-emergence effects on crop plants (Tables F); assay type: in vivo, Zea mays; conditions: application rate 80 g/ha, crop plant
Description: (§6) Seeds of mono- and dicotyledonous weed plants and crop plants were sown, in plastic or organic planting pots, in sandy loam, covered with soil and grown in a greenhouse under controlled growth conditions. 2 to 3 weeks after sowing, the test plants were sprayed in the single-leaf stage. The compounds according to the invention, formulated in form of wettable powders (WP) or as emulsifiable concentrates (EC), were sprayed onto the green plant parts as aqueous suspension or emulsion, with the addition of 0.5% of an additive, at an application rate of 6001 of water/ha (converted). The test plants were placed in the greenhouse for ca. 3 weeks under optimum growth conditions, and then the effect of the preparations was assessed visually in comparison with untreated controls (herbicidal effect in percent (%): 100% effect = plants have died off, 0% effect = as control plants). Tables F1 to F5 below show the effects of selected compounds of the general formula (I) according to table 1 on various crop plants and an application rate corresponding to 320 g/ha or below obtained by the experimental procedure mentioned above. Table […]: post-emergence activity at 320g/ha against ZEAMX in %

[15] = tested on: TRZAS; assay: as above; assay type: in vivo, Triticum aestivum; conditions: application rate 80 g/ha, crop plant
Description: as §6

[16] = tested on: ORYZA; assay: as above; assay type: in vivo, Oryza sativa; conditions: application rate 80 g/ha, crop plant
Description: as §6

[17] = tested on: GLXMA; assay: as above; assay type: in vivo, Glycine max; conditions: application rate 320 g/ha, crop plant
Description: as §6

[18] = tested on: BRSNW; assay: as above; assay type: in vivo, Brassica napus; conditions: application rate 80 g/ha, crop plant
Description: as §6

[19] = tested on: ABUTH; assay: A. Herbicidal pre-emergence action on harmful plants (Tables A); assay type: in vivo, Abutilon theophrasti; conditions: application rate 1280 g/ha; visual grading after ca. 3 weeks vs untreated controls; 100% = plants have died off, 0% = as control plants
Description: (§7) Seeds of mono- and dicotyledonous weed plants were sown in plastic pots (double sowings with one species of mono- and one species of dicotyledonous weed plants per pot), in sandy loam, and covered with soil. The compounds according to the invention, formulated in the form of wettable powders (WP) or as emulsifiable concentrates (EC), were applied to the surface of the covering soil as aqueous suspension or emulsion, with the addition of 0.5% of an additive, at an application rate of 6001 of water per hectare (converted). Following treatment, the pots were placed in a greenhouse and kept under optimum growth conditions for the test plants. The visual grading of the damage to the test plants was carried out after ca. 3 weeks in comparison to untreated controls (herbicidal effect in percent (%): 100% effect = plants have died off, 0% effect = as control plants). Tables A1 to A12, below, show the effects of selected compounds of the general formula (I) according to table 1 on various harmful plants and an application rate corresponding to 1280 g/ha or below obtained by the experimental procedure mentioned above. Table A1: pre-emergence activity at 1280g/ha against ABUTH in %

[20] = tested on: AMARE; assay: as above; assay type: in vivo, Amaranthus retroflexus
In short: as §1

[21] = tested on: ALOMY; assay: as above; assay type: in vivo, Alopecurus myosuroides
In short: as §1

[22] = tested on: VERPE; assay: as above; assay type: in vivo, Veronica persica; conditions: application rate 1280 g/ha; Table A11
Description: as §7

[23] = tested on: DIGSA; assay: as above; assay type: in vivo, Digitaria sanguinalis
In short: as §1

[24] = tested on: ECHCG; assay: B. Herbicidal post-emergence action on harmful plants (Tables B); assay type: in vivo, Echinochloa crus-galli; conditions: application rate 1280 g/ha; Table B2a
In short: (§8)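 Activity was scored visually as % damage (100% = dead, 0% = like untreated) about 3 weeks after treatment. Plants at the one-leaf stage, 2-3 weeks old, were sprayed with WP/EC formulations plus 0.5% additive (600 L/ha water, up to 1280 g/ha). Plants were grown in sandy loam in a greenhouse.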

[25] = tested on: POAAN; assay: as above; assay type: in vivo, Poa annua
In short: as §8

[26] = application rate 80 g/ha, Table A7c
[27] = application rate 320 g/ha, Table A7b
[28] = application rate 1280 g/ha, visual grading after ca. 3 weeks vs untreated controls, 100% = plants have died off, 0% = as control plants

For `COCc1nn(C)cc1C(=O)N1CCCC1Cc1cc(F)ccc1F` (racemic) [Example I-001], the “pre-emergence activity against ECHCG” value ([1]; application rate 320 g/ha) was 100%, the “pre-emergence activity against ECHCG” value ([1]; application rate 1280 g/ha) was 100% and the “pre-emergence activity against LOLRI” value ([2]; application rate 1280 g/ha) was 100%. For the same compound, the “pre-emergence activity against MATIN” value ([3]; application rate 1280 g/ha) was 90%, the “pre-emergence activity against SETVI” value ([4]; application rate 320 g/ha) was 90% and the “pre-emergence activity against SETVI” value ([4]; application rate 1280 g/ha) was 100%. The “pre-emergence activity against STEME” value ([5]; application rate 320 g/ha) was 90%, the “pre-emergence activity against STEME” value ([5]; application rate 1280 g/ha) was 90% and the “pre-emergence activity against POAAN” value [6, 26] was 100%. The “pre-emergence activity against POAAN” value [6, 27] was 100%, the “pre-emergence activity against POAAN” value [6, 28] was 100% and the “pre-emergence activity against DIGSA” value ([7]; application rate 80 g/ha, Table C5b) was 90%. For the same compound, the “pre-emergence activity against DIGSA” value ([7]; application rate 320 g/ha, Table C5a) was 100%, the “pre-emergence activity against ECHCG” value [8] was 90% and the “pre-emergence activity against LOLRI” value [9] was 80%. For the same compound, the “pre-emergence activity against VIOTR” value [10] was 80%, the “pre-emergence activity against ORYZA” value [11] was 20% and the “pre-emergence activity against GLXMA” value ([12]; application rate 80 g/ha, Table D4b) was 0%. The “pre-emergence activity against GLXMA” value ([12]; application rate 320 g/ha, Table D4a) was 20%, the “pre-emergence activity against BRSNW in %” value [13] was 0% and the “post-emergence activity against ZEAMX in %” value [14] was 0%. The “post-emergence activity against TRZAS in %” value [15] was 10%, the “post-emergence activity against ORYZA in %” value [16] was 0% and the “post-emergence activity against GLXMA in %” value [17] was 20%. For the same compound, the “post-emergence activity against BRSNW in %” value [18] was 10%.

`COCc1nn(C)cc1C(=O)N1CCCC1Cc1cc(F)ccc1F` (single isomer, unassigned) [Example I-071] was tested, and the “pre-emergence activity against ABUTH” value [19] was 90%, the “pre-emergence activity against ECHCG” value ([1]; application rate 80 g/ha) was 90% and the “pre-emergence activity against ECHCG” value ([1]; application rate 320 g/ha) was 100%. The “pre-emergence activity against ECHCG” value ([1]; application rate 1280 g/ha) was 100%, the “pre-emergence activity against LOLRI” value ([2]; application rate 80 g/ha) was 90% and the “pre-emergence activity against LOLRI” value ([2]; application rate 320 g/ha) was 100%. For the same compound, the “pre-emergence activity against LOLRI” value ([2]; application rate 1280 g/ha) was 100%, the “pre-emergence activity against MATIN” value ([3]; application rate 320 g/ha) was 90% and the “pre-emergence activity against MATIN” value ([3]; application rate 1280 g/ha) was 90%. The “pre-emergence activity against SETVI” value ([4]; application rate 80 g/ha) was 90%, the “pre-emergence activity against SETVI” value ([4]; application rate 320 g/ha) was 90% and the “pre-emergence activity against SETVI” value ([4]; application rate 1280 g/ha) was 90%. For the same compound, the “pre-emergence activity against STEME” value ([5]; application rate 320 g/ha) was 90%, the “pre-emergence activity against STEME” value ([5]; application rate 1280 g/ha) was 90% and the “pre-emergence activity against POAAN” value [6, 26] was 100%. The “pre-emergence activity against POAAN” value [6, 27] was 100%, the “pre-emergence activity against POAAN” value [6, 28] was 100% and the “pre-emergence activity against AMARE” value ([20]; application rate 320 g/ha, Table A8b) was 90%. For the same compound, the “pre-emergence activity against AMARE” value [20, 28] was 90%, the “pre-emergence activity against ALOMY” value ([21]; application rate 320 g/ha, Table A9b) was 90% and the “pre-emergence activity against ALOMY” value ([21]; application rate 1280 g/ha, Table A9a) was 90%. For the same compound, the “pre-emergence activity against VERPE” value [22] was 90%, the “pre-emergence activity against DIGSA” value ([23]; application rate 80 g/ha, Table A12c) was 90% and the “pre-emergence activity against DIGSA” value ([23]; application rate 320 g/ha, Table A12b) was 100%. The “pre-emergence activity against DIGSA” value ([23]; application rate 1280 g/ha, Table A12a) was 100%, the “post-emergence activity against ECHCG” value [24] was 90% and the “post-emergence activity against POAAN” value ([25]; application rate 320 g/ha, Table B7b) was 90%. The “post-emergence activity against POAAN” value ([25]; application rate 1280 g/ha, Table B7a) was 90%.
